Laboratory results taken from PMC8012331, “Drug-induced hepatic steatosis in absence of severe mitochondrial dysfunction in HepaRG cells: proof of multiple mechanism-based toxicity” (Cell Biology and Toxicology, 2020).
Values joined by “and” are separate entries in the source; they are usually repeats but may differ in a detail not shown here. Identical values can stand only once. “Also recorded” adds a separate entry of the source. Like-named read-outs stand apart in the source and are kept apart here.

What was measured:
[1] = Maximum plasma concentration (Cmax) in patients; type: in vivo, human; details: worked out from cited Cmax in patients
[2] = tested on: de novo lipogenesis (DNL); assay: DNL from [2-14C]acetic acid in HepaRG cells; type: cell-based, human; details: 4 days, vs control
[3] = tested on: mitochondrial fatty acid oxidation (mtFAO); assay: mtFAO with [U-14C]palmitic acid in HepaRG cells; type: cell-based, human; details: 4 days, vs control
Protocol: Experiments were carried out on passages 9 to 16. […] DPEN was dissolved in water.
Results were normalized to total protein content determined using the Pierce BCA assay kit from Thermo Fischer Scientific (Waltham, MA). Results were expressed in comparison to control cells.

[4] = patients, ref given per drug, cited from earlier work; for Cmax: read-out: Maximum plasma concentration (Cmax) in patients
phospho-IRE1α (Ser724) = assay: Western blot phospho-IRE1α in HepaRG cells; type: cell-based, human
Protocol: Cells were lysed in ice-cold CelLytic M buffer (C2978; Sigma Aldrich) containing phosphatase and protease inhibitors from Roche Applied Science (Penzberg, Germany). Protein concentration was determined using the Pierce BCA Protein Assay Kit (Thermo Fisher Scientific) and equal amounts of protein were diluted with NuPAGE LDS Sample Buffer (Thermo Fisher Scientific). Samples (ca. 25 μg of proteins) were then separated by SDS-PAGE using NuPAGE 4–12% Bis-Tris gels (Thermo Fisher Scientific). Proteins were transferred to PVDF membranes (BioRad) and Ponceau S staining was used to confirm equal loading and transfer. Membranes were blocked in 7.5% milk in TBST (10 mM Tris–HCl, 100 mM NaCl, 0.02% Tween 20) for 1 h at room temperature and incubated overnight at 4 °C with antibodies against phospho-IRE1α (Ser724) (Abcam, ab124945), IRE1α (Cell Signaling, 3294), or HSC70 (Santa Cruz, sc-7298), whose dilutions were 1:1000. […] Protein content was quantified by densitometry with ImageJ software (National Institutes of Health, Bethesda, MD).

[5] = tested on: fatty acid synthase (FASN); assay: RT-qPCR FASN mRNA in HepaRG cells; type: cell-based, human; details: 4 days, vs control
Protocol: (§1) Total RNA was extracted with the Nucleospin RNA isolation system purchased from Macherey-Nagel (Düren, Germany), which included a DNase treatment step. Quantification of isolated RNAs was assessed using a Nanodrop 1000 (Thermo Fisher Scientific, Waltham, MA). RNAs were reverse-transcribed into cDNAs using the High-Capacity cDNA Reverse Transcription Kit purchased from Applied Biosystems (Woolston, UK). Gene expression was assessed by real-time quantitative PCR analysis (RT-qPCR) using SYBR Green PCR Master Mix (Applied Biosystems) and a 384-well QuantStudio™ 7 Flex Real-Time PCR System (Thermo Fisher Scientific). Sequences of the primers used to measure gene expression are presented in Supplementary Table 3. Expression of GAPDH was chosen as reference and the 2^−ΔΔCt calculation method was used to express the relative expression of each selected gene.

apoC3 secretion = assay: apoC3 level in culture medium (HTRF), HepaRG cells; type: cell-based, human; details: 4 days, culture medium, vs control
[6] = treated patients, ref Schulz M et al., Crit Care 2012 ;16(4):R136, cited from earlier work
[7] = tested on: fatty acid translocase (FAT, also known as CD36); assay: RT-qPCR FAT/CD36 mRNA in HepaRG cells; type: cell-based, human; details: 4 days, vs control
Protocol: as §1

HepaRG cells = assay: Neutral lipids with Nile red in HepaRG cells; details: 4 days, selected concentrations (ATP loss < 30%, not above 100 × Cmax), vs control

SMILES	Concentration corresponding to 100xCmax [1] [µM]	Effect on DNL [2]	Effect on mtFAO [3]	Maximum plasma concentration (Cmax) in patients [4] [ng/mL]	Cmax [4] [µM]	Protein level of phospho-IRE1α (pIRE1α) (phospho-IRE1α (Ser724))	FASN mRNA level [5]	Effect on apoC3 secretion (apoC3 secretion)	Therapeutic blood (or plasma) concentration in patients ([6]; listed as Indomethacin (INDO))	FAT/CD36 mRNA level [7]	Accumulation of neutral lipids (steatosis) (HepaRG cells)	Therapeutic blood (or plasma) concentration in patients ([6]; listed as Rifampicin (RIF))
COc1ccc2c(c1)c(CC(=O)O)c(C)n2C(=O)c1ccc(Cl)cc1 [INDO, indomethacin]	2200	increased DNL	inhibited this metabolic pathway and mild	≤ 8000	≤ 22	increased protein level	augmented mRNA abundance	reduced the secretion	0.3 - 1 mg/L and 0.83 - 2.8 µM	significantly augmented	–	–
CO[C@H]1/C=C/O[C@@]2(C)Oc3c(C)c(O)c4c(O)c(c(/C=N/N5CCN(C)CC5)c(O)c4c3C2=O)NC(=O)/C(C)=C\C=C\[C@H](C)[C@H](O)[C@@H](C)[C@@H](O)[C@@H](C)[C@H](OC(C)=O)[C@@H]1C [RIF, rifampicin]	1900	curb this metabolic pathway	inhibited this metabolic pathway; also recorded: moderate	≤ 15600	≤ 19	increased protein level	–	reduced the secretion	–	this effect was not observed	significant accumulation of neutral lipids	0.1 - 10 mg/L and 0.12 - 12.2 µM
